Experimental data as given in patent US8592401B2, “Methods and compounds for vitamin D therapy” (Proventiv Therapeutics, LLC, priority 2007, dated 2013).
Read-outs that look alike come from different tables or passages of the source.

How the values were obtained:
Caco-2 cells = settings: cited from earlier work
[1] = tested on: rats having adenine-induced kidney failure; assay: Serum phosphorous in rats having adenine-induced kidney failure; assay type: in vivo, Sprague Dawley rats
Experimental: (§1) Soc. Neph., 17; 107-112]. After 4 weeks, normal diet was given to all animals. A control group receiving normal diet during the entire course of the study was used as normal control animals. After the 4 weeks of adenine diet treatment, animals were dosed i.v. 3×/week for 2 or 8 weeks with calcitriol or 1,25-dihydroxyvitamin D2 at 0.01, 0.05, 0.1, 0.25 and 0.5 mg/kg. Serum, plasma kidney and parathyroid gland were collected after 2 and 8 weeks. iPTH and FGF23 in plasma and serum, respectively, were measured using a commercial Elisa kit. Serum calcium was measured using an ORTHO-CLINICAL VITROS 250 chemistry system or an o-cresolphthalein complexone-based assay. Serum phosphorus was measured using an ORTHO-CLINICAL VITROS 250 chemistry system or an ammonium molybdate-based assay. Fibronectin 1 was measured by real-time PCR from cDNA isolated from kidney.

[2] = tested on: rats having adenine-induced kidney failure; design: species or system Sprague Dawley rats; settings: rat, in vivo, iv
Experimental: as §1
(§2) These findings indicate that L25-dihydroxyvitamin D2 appears to be less likely to cause calcemia than 1,25-dihydroxyvitamin D3 at doses that have equivalent efficacy.

renal FN1 = assay: Renal FN1 (fibronectin 1) expression by real-time PCR in adenine rats; assay type: in vivo, Sprague Dawley rats; design: extent of suppression of renal FN1 expression, compared to calcitriol-treated animals: dose or concentration left out as unconfirmed; settings: after 12 days of treatment; for suppression of renal FN1 expression, comparison of the two compounds: 0.1 mg/kg
Experimental: as §1

[3] = tested on: rats having adenine-induced kidney failure; assay: iPTH levels in rats having adenine-induced kidney failure; assay type: in vivo, Sprague Dawley rats; settings: for suppression of serum PTH (iPTH) levels: adenine treated animals, i.v. 3×/week, after two weeks of dosing
Experimental: as §1, with “3×/week for 2 or 8 weeks with calcitriol or 1,25-dihydroxyvitamin D2 at 0.01, 0.05, 0.1, 0.25 and 0.5 mg/kg.” left out
For reference, PTH values are also shown for animals in the study fed a normal diet (without adenine).
as §2

[4] = tested on: markers of bone metabolism; settings: in culture; cited from earlier work
bone resorption = settings: in vivo; cited from earlier work
[5] = cited from earlier work
DBP = molecular target: T1, DBP (Homo sapiens, UniProt P02774); settings: cited from earlier work
T1 sequence (P02774 17-474): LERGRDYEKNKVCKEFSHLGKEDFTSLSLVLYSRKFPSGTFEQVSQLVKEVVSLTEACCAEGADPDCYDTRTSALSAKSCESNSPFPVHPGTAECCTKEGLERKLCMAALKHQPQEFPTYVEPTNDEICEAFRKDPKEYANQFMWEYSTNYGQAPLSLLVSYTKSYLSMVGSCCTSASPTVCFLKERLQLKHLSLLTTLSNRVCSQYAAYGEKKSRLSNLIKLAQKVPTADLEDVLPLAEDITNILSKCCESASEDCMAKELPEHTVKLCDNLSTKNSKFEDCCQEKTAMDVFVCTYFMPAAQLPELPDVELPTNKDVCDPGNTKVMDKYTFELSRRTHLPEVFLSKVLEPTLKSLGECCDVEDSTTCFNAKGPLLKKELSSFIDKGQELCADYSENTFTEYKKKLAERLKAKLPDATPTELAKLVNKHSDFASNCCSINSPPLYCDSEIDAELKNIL

healthy male humans = settings: cited from earlier work
C2BBe1 cells = assay: Alkaline phosphatase and CYP24 in C2BBe1 cells (real-time PCR); assay type: cell-based; settings: 100 nM, 10 nM, 8 hours at 37° C.
Experimental: C2BBe1 cells were treated with […], 100 nM, and 10 nM 1,25-dihydroxyvitamin D2 and calcitriol. Cells were incubated for 8 hours at 37° C. The cells were then lysed in 1 ml of TRIzol reagent. RNA was isolated from cell lysates through phase separation, as per the manufacturer's instructions (INVITROGEN). After cDNA synthesis, real-time PCR was used to quantify alkaline phosphatase and CYP24.

[6] = tested on: subjects with low serum 1,25-dihydroxyvitamin D; assay: Study in subjects with low serum 1,25-dihydroxyvitamin D (Example 1); assay type: in vivo, human
Experimental: 1,25-dihydroxyvitamin D2 is used as a treatment for subjects with low serum 1,25-dihydroxyvitamin D in a study involving 50 adults, ages 18-85 years.
The subjects have serum 1,25-dihydroxyvitamin D levels below 20 pg/dL and complete an eight-week baseline period and then 24 weeks of therapy with orally administered 1,25-dihydroxyvitamin D2.
The initial dose of 1,25-dihydroxyvitamin D2 is 1.0 μg, with increases in steps of 0.5 μg/day permitted after four weeks. The maximum dosage is limited to 5.0 μg/day of 1,25-dihydroxyvitamin D2. Subjects are monitored at regular intervals for plasma iPTH, serum calcium and phosphorus, 24-hour and fasting urinary calcium, bone-specific serum markers, plasma total 1,25-dihydroxyvitamin D2 and routine blood chemistries and hematologies.

[7] = Stability of compounds in human intestine microsomes; assay type: in vitro ADME; settings: microsomes 22 mg/ml, NADPH-generating system, 60 min, 37° C.
Experimental: Equal parts of 0.1 M phosphate buffer (pH 7.4), NADPH, G-6-P, and G-6-P dehydrogenase were mixed to create a NADPH-generating system, and the final concentration of NADPH, G-6-P, and G-6-P dehydrogenase were 0.8 mM, 8 mM and 0.8 U/ml.
1,25-dihydroxyvitamin D2 and calcitriol were added in to the NADPH-generating system. The final concentrations of the two vitamin D compounds were each […]. A reaction was initiated by the addition of the human intestine microsomes (22 mg/ml) after a 5 min pre-incubation of the reaction at 37° C. After incubation for 60 min, the reaction was terminated by addition of cold 100% acetonitrile. An aliquot of the samples was injected into HPLC to determine the % remaining of the compound.

[8] = tested on: ESRD human patients undergoing chronic hemodialysis; assay type: in vivo
Source text: Up to 100 ESRD (End Stage Renal Disease) human patients undergoing chronic hemodialysis are studied in a multicenter, double-blind, placebo-controlled study. The selected patients reside in two major metropolitan areas within the continental U.S., have ages between 20 and 75 years, and have a history of secondary hyperparathyroidism. They have been on hemodialysis for at least four months, have a normal (or near normal) serum albumin, and have controlled serum phosphorus (often by using oral calcium phosphate binders).
On admission to the study, each patient is assigned at random to one of two treatment groups. One of these groups receives two consecutive 12-week courses of therapy with 1,25-dihydroxyvitamin D2; the other group receives one 12-week course of therapy with 1,25-dihydroxyvitamin D2 without interruption, by one 12-week course of placebo therapy. Each patient discontinues any 1α,25-dihydroxyvitamin D3 therapy for eight weeks prior to initiating 1,25-dihydroxyvitamin D2 therapy. Throughout this eight-week washout (or control) period and the two subsequent 12-week treatment periods, patients are monitored weekly for serum calcium and phosphorus. Serum intact PTH is monitored weekly or biweekly, and bone-specific serum markers, serum vitamin D metabolites, serum albumin, blood chemistries, hemoglobin and hematocrit are monitored at selected intervals.
During the study, patients undergo routine hemodialysis (three times per week) using a 1.24 mM calcium dialysate and ingest calcium phosphate binders (such as calcium carbonate or calcium acetate) in an amount sufficient to keep serum phosphate maintained in a range of 3.5 to 5.5 mg/dL. Patients who develop persistent mild hypercalcemia or mild hyperphosphatemia during the treatment periods reduce their 1,25-dihydroxyvitamin D2 dosage. […] Such patients are monitored at twice-weekly intervals until the serum calcium or phosphorus is normalized, and resume 1,25-dihydroxyvitamin D2 dosing.

C=C1/C(=C\C=C2/CCC[C@]3(C)[C@@H]([C@H](C)CCCC(C)(C)O)CC[C@@H]23)C[C@@H](O)C[C@@H]1O [calcitriol, 1α,25-dihydroxyvitamin D3]
stimulation of calcium transport (Caco-2 cells): 934%
elevation of serum phosphorous ([1]; rat, in vivo, iv): significant elevation of phosphorous at the two highest doses
doses showing significant elevation of serum calcium ([2]; Sprague Dawley): greater than 0.10 μg/kg
suppression of renal FN1 expression, comparison of the two compounds (renal FN1): No difference in suppression
inhibition at 0.0001 mg/kg ([3]; Rattus norvegicus, read-out: PTH inhibition): ~13.6%
suppression of serum PTH (iPTH) levels [3]: in a dose dependant manner can suppress serum PTH levels

C[C@H](/C=C/[C@H](C)C(C)(C)O)[C@H]1CC[C@H]2/C(=C/C=C3C[C@@H](O)C[C@H](O)C3)CCC[C@]12C [19-nor-1,25-dihydroxyvitamin D2]
stimulation of calcium transport (Caco-2 cells): did not show a significant effect
effects on VDR expression, suppression of cell proliferation, osteocalcin and alkaline phosphatase activity versus 1,25-dihydroxyvitamin D3 [4]: indistinguishable
potency in promoting bone resorption relative to 1,25-dihydroxyvitamin D3 (bone resorption): approximately 10 fold less potent
half-life ([5]; healthy patients): 4 to 6 h
half-life ([5]; patients with Stage 4 CKD): 20 h
half-life ([5]; patients with chronic renal failure): 15 h
affinity for DBP compared to 1,25-dihydroxyvitamin D3 (DBP): 3 fold lower

C=C1CC[C@H](O)C/C1=C/C=C1\CCC[C@]2(C)[C@@H]([C@H](C)/C=C/[C@H](C)C(C)C)CC[C@@H]12 [Vitamin D2, ergocalciferol]
course of 25-hydroxyvitamin D2 levels (healthy male humans; 50,000 IU): fell early and were not different from baseline at 14 days
potency relative to Vitamin D3 (healthy male humans; healthy male humans): less than one-third as potent

C=C1/C(=C\C=C2/CCC[C@]3(C)[C@@H]([C@H](C)/C=C/[C@H](C)C(C)(C)O)CC[C@@H]23)C[C@@H](O)C[C@@H]1O [1,25-dihydroxyvitamin D2]
elevation of serum phosphorous ([1]; adenine rats, i.v. 3×/week, doses 0.01-0.5): significance only at the highest dose
doses showing significant elevation of serum calcium [2]: greater than 0.05 μg/kg
DBP binding compared with 1,25-dihydroxyvitamin D3 (DBP): no significant difference
induction of IAP (alkaline phosphatase) activity (C2BBe1 cells): not a potent inducer of IAP activity
serum 1,25-dihydroxyvitamin D levels between doses [6]: within the patients' normal historical physiological range
metabolic stability (% remaining) in human intestinal microsomes [7]: metabolically unstable
suppression of renal FN1 expression, comparison of the two compounds (renal FN1): No difference in suppression
extent of suppression of renal FN1 expression, compared to calcitriol-treated animals (renal FN1): significantly greater
mean serum PTH relative to pretreatment levels ([8]; after initiation of dosing): less than 50 % of pretreatment levels
mean serum PTH in the active group ([8]; end of the second 12-week treatment period): remained controlled
hypercalcemia in patients exhibiting excessive suppression of serum PTH ([8]; human, in vivo): transient mild hypercalcemia is observed
suppression of serum PTH (iPTH) levels [3]: in a dose dependant manner can suppress serum PTH levels
PTH inhibition ([3]; dose of 0.05 μg/kg): about 82.7%

C=C1CC[C@H](O)C/C1=C/C=C1\CCC[C@]2(C)[C@@H]([C@H](C)CCCC(C)C)CC[C@@H]12 [Vitamin D3, cholecalciferol]
time of peak of 25-hydroxyvitamin D3 levels (healthy male humans; 50,000 IU): 14 days
